For series [1], the system named is Pfeiffer (EZH2 A677G mutation). Description: Cell growth inhibition test, Pfeiffer. In kind it is cell-based. The note with it: Homo sapiens, read-out: Cell growth inhibitory activity (GI50, nM) Pfeiffer (EZH2 A677G mutation). How it is done:
(§1) Each type of the cultured cells was seeded in 6-well plates or 48-96 well plates, and subculture or medium replacement was performed every 3 to 4 days. Next, the cells were subcultured for a total of 7 to 14 days, and then seeded in 96-well plates. 3 to 5 days before the measurement of the effect, the cells were seeded in 96-well plates, and then the absorbance (Tz) on the day of seeding was measured. The absorbance after the reaction was measured by the plate reader device Synergy NeoAlpha (Biotek) using Cell-Titer-Glo Cell Viability Assay (Promega, G7573) according to the attached manual. Based on the absorbance (Tz) measured on the seeding day and the absorbance of each of the DMSO-treated group (C) and the sample-added group (Ti) measured on the day of effect determination, the percentage of cell proliferation inhibition was calculated according to the following Equation 1. [(Ti−Tz)/(C−Tz)]×100 for concentrations for which Ti≥Tz […] for concentrations for which Ti<Tz. [Equation 1]

The nature of series [2]: Mouse pharmacokinetics, oral single dose. Type of series: in vivo. Conditions: male, ICR, mouse, plasma, po, 30 mg/kg, mice (ICR, male), oral single dose 30 mg/kg. How it is done: Pharmacokinetics of the synthetic compounds as EZH2 inhibitors in mice (ICR, 8-week-old, male) were tested.
The oral administration group was maintained in a fasting state from the day before the test to 4 hours after administration of the test compound. On the day of administration of the test compound, the weight of each animal was measured and each synthetic compound was formulated using a selected solvent based on 30 mg/kg (10 mL/kg). Each test compound was administered orally in a single dose, a certain amount of the blood was taken at a predetermined time, plasma was isolated therefrom, and the concentration of each test compound in the plasma was analyzed using LC-MS/MS (Waters UPLC H-Class/Xevo TQ; Waters, USA). Pharmacokinetic coefficients were calculated by a linear-log trapezoidal summation formula using a non-compartment analysis of the Phoenix™ WinNonlin (Certara, USA) program through the plasma concentration curve over time.

The subject of another series is Mino. In words: Cell growth inhibition test, Mino. The note with it: Homo sapiens, 336 h, culture time 14 days, read-out: Cell growth inhibitory activity (GI50, nM) Mino. In kind it is cell-based. How it is done: (§2) In order to confirm the inhibitory effects of the synthetic compounds against the growth of blood cancer cell lines, evaluation was performed against KARPAS 422, RPMI 8226, KMS-11, JeKo-1, MV-4-11, Mino, Pfeiffer, SU-DHL-4, and RS4; 11 cell lines. A test for the Pfeiffer and SU-DHL-4 cell lines was performed by KYinno Co., Ltd., a test for the RS4; 11 cell line was performed by Shanghai Chempartner Co., Ltd., and a test for the Kasumi-1, MV-4-11, MM.1S, KMS-11, JeKo-1, Mino (ATCC), RPMI 8226 (KCLB), and KARPAS 422 (ECACC) cell lines was performed after purchase.
as §1, with “DMSO at a final concentration of 0.1% or less or a DMSO solution of each of the synthetic compounds was added to media to have the concentration and treatment time described in Table 5 below, and cells were cultured at 37° C. under 5% CO2. Each” for “Each”

Series [3] has as its system KARPAS-422 (EZH2 Y641N mutation). Description: Cell growth inhibition test, KARPAS-422. Type of series: cell-based. The note with it: Homo sapiens, KARPAS-422, 168 h, KARPAS-422, culture time 7 days; read-out: Cell growth inhibitory activity (GI50, nM) KARPAS-422 (EZH2 Y641N mutation).
Series [4] is described as follows: Metabolic stability in dog liver microsomes. Type of series: in vitro ADME. The note with it: 5 μM compound, 1 mg/mL dog liver microsomes, 37° C., NADPH regenerating system. How it is done:
(§3) In order to confirm the metabolic stability of the synthetic compounds in the liver, 5 μM test compound and 1 mg/mL human, dog, rat or mouse liver microsomes were allowed to react with each other at 37° C. in the presence of the NADPH regenerating system for 1 hour. After 1 hour, the reaction was terminated and the supernatant obtained by centrifugation was analyzed by HPLC. With the peak value obtained as the analysis result, the residual amount (%) was calculated using the following equation through the peak value of the test compound after 1 hour of the reaction versus the peak value of the test compound at 0 min. Residual amount (%)=(peak value of test compound after 1 hour of reaction/peak value of test compound at 0 min)×100
A general note: Liver microsomes are vesicles of endoplasmic reticulum, rich in cytochrome P450 enzymes.

In a further series the test system is MM.1S. In words: Cell growth inhibition test, MM.1S. Type of series: cell-based. The note with it: Homo sapiens, MM1.S, 264 h, culture time 11 days, read-out: Cell growth inhibitory activity (GI50, nM) MM.1S. How it is done:
as §2
as §1, with “DMSO at a final concentration of 0.1% or less or a DMSO solution of each of the synthetic compounds was added to media to have the concentration and treatment time described in Table 5 below, and cells were cultured at 37° C. under 5% CO2. Each” for “Each”

The next series concerns RS4;11. Description: Cell growth inhibition test, RS4;11. In kind it is cell-based. The note with it: Homo sapiens, read-out: Cell growth inhibitory activity (GI50, nM) RS4;11. How it is done:
as §2
as §1, with “DMSO at a final concentration of 0.1% or less or a DMSO solution of each of the synthetic compounds was added to media to have the concentration and treatment time described in Table 5 below, and cells were cultured at 37° C. under 5% CO2. Each” for “Each”

Another series concerns JeKo-1. Description: Cell growth inhibition test, JeKo-1. Conditions: Homo sapiens, 240 h; JeKo-1, culture time 10 days; read-out: Cell growth inhibitory activity (GI50, nM) JeKo-1. Type of series: cell-based. How it is done: as §2
as §1, with “DMSO at a final concentration of 0.1% or less or a DMSO solution of each of the synthetic compounds was added to media to have the concentration and treatment time described in Table 5 below, and cells were cultured at 37° C. under 5% CO2. Each” for “Each”

The subject of a further series is MV4-11. In words: Cell growth inhibition test, MV4-11. Conditions: Homo sapiens, 240 h; MV4-11, culture time 10 days; read-out: Cell growth inhibitory activity (GI50, nM) MV4-11. In kind it is cell-based. How it is done:
as §2
as §1, with “DMSO at a final concentration of 0.1% or less or a DMSO solution of each of the synthetic compounds was added to media to have the concentration and treatment time described in Table 5 below, and cells were cultured at 37° C. under 5% CO2. Each” for “Each”

The next series deals with KMS-11. In words: Cell growth inhibition test, KMS-11. Type of series: cell-based. The note with it: Homo sapiens, 240 h; KMS-11, culture time 10 days; read-out: Cell growth inhibitory activity (GI50, nM) KMS-11. How it is done: as §2
as §1, with “DMSO at a final concentration of 0.1% or less or a DMSO solution of each of the synthetic compounds was added to media to have the concentration and treatment time described in Table 5 below, and cells were cultured at 37° C. under 5% CO2. Each” for “Each”

Series [5] can be described thus: Metabolic stability in human liver microsomes. In kind it is in vitro ADME. Conditions: 5 μM compound, 1 mg/mL human liver microsomes, 37° C., NADPH regenerating system.
Series [6] is described as follows: Metabolic stability in mouse liver microsomes. In kind it is in vitro ADME. Conditions: 5 μM compound, 1 mg/mL mouse liver microsomes, 37° C., NADPH regenerating system.
The nature of series [7]: Metabolic stability in rat liver microsomes. The note with it: 5 μM compound, 1 mg/mL rat liver microsomes, 37° C., NADPH regenerating system. Type of series: in vitro ADME. How it is done: as §3
For the next series, the system named is SU-DHL-4. Description: Cell growth inhibition test, SU-DHL-4. In kind it is cell-based. Conditions: Homo sapiens, read-out: Cell growth inhibitory activity (GI50, nM) SU-DHL-4. How it is done:
as §2
as §1, with “DMSO at a final concentration of 0.1% or less or a DMSO solution of each of the synthetic compounds was added to media to have the concentration and treatment time described in Table 5 below, and cells were cultured at 37° C. under 5% CO2. Each” for “Each”

For a further series, the system named is RPMI8226. Description: Cell growth inhibition test, RPMI8226. The note with it: Homo sapiens, RPMI-8226, 168 h; RPMI8226, culture time 7 days; read-out: Cell growth inhibitory activity (GI50, nM) RPMI8226. Type of series: cell-based. How it is done: as §2
as §1, with “DMSO at a final concentration of 0.1% or less or a DMSO solution of each of the synthetic compounds was added to media to have the concentration and treatment time described in Table 5 below, and cells were cultured at 37° C. under 5% CO2. Each” for “Each”

In a further series the test system is Kasumi-1. In words: Cell growth inhibition test, Kasumi-1. In kind it is cell-based. Conditions: Homo sapiens, 240 h; Kasumi-1, culture time 10 days; read-out: Cell growth inhibitory activity (GI50, nM) Kasumi-1. How it is done:
as §2
as §1, with “DMSO at a final concentration of 0.1% or less or a DMSO solution of each of the synthetic compounds was added to media to have the concentration and treatment time described in Table 5 below, and cells were cultured at 37° C. under 5% CO2. Each” for “Each”

In general, GI50 refers to the concentration at which growth is held to half of that of the control. By AUC is commonly meant concentration integrated over time.

As for `Cc1cc(C)c(CNC(=O)c2cc(Cl)c3c(c2C)O[C@@](C)([C@H]2CC[C@H](N(C)C)CC2)O3)c(=O)[nH]1` [Control B], the GI50 in [1] is 0.57 nM; with Mino it was 2.5 nM; in series [3], 1.3 to 15 nM; in the series with MM.1S, 2.3 nM; in the series with RS4;11 it was 62 nM; in the series with JeKo-1, 71 nM. The GI50 with MV4-11 worked out at 6.1 nM; in the series on KMS-11 it was 25 nM; with SU-DHL-4 it was 21 nM; with RPMI8226, 7.8 nM; in the series on Kasumi-1, 324 nM. In series [2] (read-out: Area under oral curve (AUC)), the exposure (AUC) was 3420 to 5000 ng·h/mL. Further, the half-life in [2] (read-out: Half life T1/2 (converted)) is 1 h. Also, the “Residual amount (%) of test compound after 1 hour of reaction, Dog” value in series [4] was found to be 83%. In addition, the “Residual amount (%) of test compound after 1 hour of reaction, Human” value in [5] is given as 65%. The “Residual amount (%) of test compound after 1 hour of reaction, Mouse” value in series [6] is given as 50%. Besides, in series [7], the “Residual amount (%) of test compound after 1 hour of reaction, Rat” value is 81%.

These data come from patent US12344618B2, “Heterotricyclic derivative compound and use of same” (HANMI PHARMACEUTICAL CO., LTD., priority 2019, dated 2025).
